Entries after “also recorded” stand apart in the source; their conditions may differ.
Assays:
[1] = test system: Molm13 PPM1D-mutant and control single cell clones; experiment: Annexin V staining and flow cytometric analysis; format: cell-based, human; details: 3 μM of GSK2830371
Excerpt: FIG. 9E is a chart depicting the consensus sequence of PPM1D based on substrate analysis of 43 substrate candidates of PPM1D. FIG. 9F depicts 43 potential PPM1D substrate sites on pSer/Thr residues on 25 proteins. […] Only localized sites were considered. Figure discloses SEQ ID NOS 4-20 and 20-31, respectively, in order of appearance. FIG. 9G depicts a schema illustrating the components of the DNA-damage response pathway that are targeted by PPM1D in leukemia cells, based on the results from the phosphoproteomics analysis. Phospho-targets of PPM1D identified by mass spectrometry (FDR<0.1) are shown in bold. Predicted PPM1D target sites that were based on the identified consensus sequence with a glutamine at +1 and >2 acidic residues (p=3.595e-13, Fisher's exact test) are shown in italics.
(§1) 72 hour cell viability analysis in Molm13 PPM1D-mutant and control single cell clones after exposure to increasing doses of GSK2830371. FIG. 10F is a graph showing percent Annexin V positive cells in cells treated with PPM1D inhibitor or vehicle. Annexin V staining and flow cytometric analysis of Molm13 PPM1D-mutant and control single cell clones exposed to 3 μM of GSK2830371. *=p<0.05, **=p<0.01, ***=p<0.001

[2] = test system: Molm13 PPM1D-mutant cells; experiment: Quantitative phosphoproteomic analysis (KEGG P53 pathway phosphosites); format: cell-based, human; details: 400 nM AraC + 1 μM GSK2830371, 4 hours
Procedure: as §1
To explore the spectrum of PPM1D targets in hematopoietic cells, a quantitative phosphoproteomic analysis was performed in PPM1D wild-type and mutant cells at baseline and in response to chemotherapy. […] In addition, CDKN1A (p21) was identified as a new DNA damage response target of PPM1D. Based on the peptides with altered phosphorylation in PPM1D-mutant cells, a consensus sequence was identified for the serine-threonine phosphatase activity of PPM1D (FIGS. 9E and 9F). Because many phosphorylation sites are not located on peptides that are detected by mass spectrometry, the consensus sequence was used to predict additional PPM1D targets. Known PPM1D targets, including TP53, CHEK1, CHEK2, ATM, ATR and MDM2, bear the consensus target sequence. In addition, new phosphorylation sites were identified in components of the DNA damage response pathway that are predicted targets of PPM1D based on the consensus sequence. […]

[3] = test system: Molm13 PPM1D-mutant pooled cells and control pooled cells; experiment: In vitro competition experiment, PPM1D-mutant cells mixed with control cells; format: cell-based, human; details: 1:9 ratio, 100 nM cytarabine plus 100 nM GSK2830371
Procedure: FIG. 2B provides immunoblots of whole cell lysates from Molm13 control cells (control), PPM1D-mutant pooled clones and PPM1D frame-shift (fs) mutant single cell clones probed with anti-PPM1D and anti-Actin. […] FIG. 2D is a plot depicting viability assays in Molm13 PPM1D-mutant or control single cells clones that were treated with increasing concentrations of cyclophosphamide for 72 hours. FIG. 2E is a plot depicting viability assays in Molm13 PPM1D-mutant or control single cells clones that were treated with increasing concentrations of cisplatin for 72 hours. […] FIG. […] FIG. […] PPM1D and control sgRNAs were identified through their fluorophores.
as §1
(§2) To study the sensitivity of PPM1D truncating mutations to chemotherapy exposure, frame-shift mutations were introduced in the PPM1D gene in Molm13 AML cells, which are TP53 wild-type, using CRISPR-Cas9.

[4] = test system: Molm13 PPM1D-mutant and Molm13 control single cell clones; experiment: Immunoblot of whole cell lysates for p53 Ser15 and Chk1 Ser345 phosphorylation; format: cell-based, human; details: Molm13 PPM1D-mutant cells, 1 hour pretreated with GSK2830371, exposed to 400 nM cytarabine
[5] = target: T1, PPM1D phosphatase (Homo sapiens, UniProt O15297); details: Gilmartin et al. 2014; cited from earlier work
T1 sequence (O15297 1-605): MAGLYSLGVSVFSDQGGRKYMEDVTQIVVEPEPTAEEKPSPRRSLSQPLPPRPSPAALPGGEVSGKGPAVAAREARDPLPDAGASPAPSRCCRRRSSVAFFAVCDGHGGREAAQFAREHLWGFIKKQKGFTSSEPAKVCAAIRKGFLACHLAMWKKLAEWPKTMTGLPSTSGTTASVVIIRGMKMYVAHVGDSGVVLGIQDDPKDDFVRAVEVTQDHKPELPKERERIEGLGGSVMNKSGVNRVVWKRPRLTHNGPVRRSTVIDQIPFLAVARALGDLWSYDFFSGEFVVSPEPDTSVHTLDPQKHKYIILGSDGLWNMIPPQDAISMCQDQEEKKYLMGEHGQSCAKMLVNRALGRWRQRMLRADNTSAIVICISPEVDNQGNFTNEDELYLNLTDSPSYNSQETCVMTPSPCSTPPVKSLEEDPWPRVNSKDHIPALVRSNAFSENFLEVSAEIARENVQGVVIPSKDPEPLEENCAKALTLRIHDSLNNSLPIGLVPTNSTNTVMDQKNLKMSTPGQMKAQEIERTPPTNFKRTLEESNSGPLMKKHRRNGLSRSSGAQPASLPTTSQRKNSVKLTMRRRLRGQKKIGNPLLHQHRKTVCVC

[6] = test system: Molm13 PPM1D-mutant and control single cell clones; experiment: 72-hour cell viability analysis; format: cell-based, human
Procedure: FIG. 2B provides immunoblots of whole cell lysates from Molm13 control cells (control), PPM1D-mutant pooled clones and PPM1D frame-shift (fs) mutant single cell clones probed with anti-PPM1D and anti-Actin. […] FIG. 2D is a plot depicting viability assays in Molm13 PPM1D-mutant or control single cells clones that were treated with increasing concentrations of cyclophosphamide for 72 hours. FIG. 2E is a plot depicting viability assays in Molm13 PPM1D-mutant or control single cells clones that were treated with increasing concentrations of cisplatin for 72 hours. […] FIG. 2G is a plot depicting flow cytometric readout of competition experiment with 5% pooled Molm13 PPM1D-mutant cells and 95% pooled Molm13 control cells exposed to 350 nM Cyclophosphamide or vehicle for 24 days. FIG. 2H is a plot depicting flow cytometric readout of competition experiment with 5% pooled Molm13 PPM1D-mutant cells and 95% pooled Molm13 control cells exposed to 1 μM Cisplatin or vehicle for 24 days. […] PPM1D and control sgRNAs were identified through their fluorophores.
The line represents the locally weighted scatterplot smoothing (LOESS) of 0.1. […] FIG. 8B is a vector map of the degradation reporter vector, with different PPM1D cDNA constructs inserted. FIG. 8C is a graph showing EGFP/mCherry ratio for Molm13 cells with overexpression of wild type PPM1D, truncated PPM1D or the C-terminal end of PPM1D. FIG. 8D is a graph showing EGFP/mCherry ratio for Molm13 p53^−/− cells with overexpression of wild type PPM1D, truncated PPM1D or the C-terminal end of PPM1D. FIG. 8E is a graph showing EGFP/mCherry ratio in Molm13 cells before and after exposure to MG132 (10 μM, 6 hours), normalized to pre-treatment values. FIG. 8F is a plot showing cell viability analysis in Molm13 control cells (control), Molm13 PPM1D truncating mutant cells (PPM1D mutant) and Molm13 cells with overexpression of wild-type PPM1D (WT overexpression). […] For all experiments the following apply: *=p<0.05, **=p<0.01, ***=p<0.001,****=p<0.0001
as §1
To study the role of PPM1D mutations in chemotherapy resistance, mutations in PPM1D were induced using the CRISPR-Cas9 system. […] Using sequence verified PPM1D mutant (fs) and empty vector control Molm13 cells, the effects of mutant and wild type PPM1D in the response to DNA damaging chemotherapy were analyzed. […] (FIG. 1C).
as §2

Cc1ncc(Cl)cc1NCc1ccc(C(=O)N[C@@H](CC2CCCC2)C(=O)NC2CC2)s1 [GSK2830371]
sensitivity of PPM1D-mutant cells versus control cells to single agent PPM1D inhibitor, Annexin V staining [1]: increased sensitivity to single agent PPM1D inhibitor treatment when compared to control cells | aberrant phosphorylation pattern of PPM1D-mutant cells in response to chemotherapy [2]: reversed the aberrant PPM1D mutant phosphorylation pattern; also recorded: complete reversal of the aberrant phosphorylation pattern | competitive advantage of PPM1D-mutant cells during cytarabine plus PPM1D inhibitor [3]: reversed the competitive advantage of PPM1D mutant cells; also recorded: could be reversed | p53 Ser15 phosphorylation with PPM1D inhibitor [4]: increased the phosphorylation of p53 | p53 Ser15 phosphorylation with PPM1D inhibitor ([4]; listed as GKS2830371): increased p53 Ser15 phosphorylation | selectivity for the PPM1D phosphatase [5]: highly selective for the PPM1D phosphatase | sensitivity of PPM1D-mutant cells versus control cells to single agent PPM1D inhibitor, cell viability ([6]; 72 hour, increasing doses): PPM1D mutant cells had an increased sensitivity; also recorded: increased sensitivity to single agent PPM1D inhibitor treatment when compared to control cells; also recorded: increased sensitivity to PPM1D inhibition with either compound in comparison to wild type control cells; also recorded: selectively kills PPM1D-mutant cells | sensitivity of PPM1D-mutant cells to cytarabine when combined with PPM1D inhibitor ([6]; pre-treated 1 hour with 3 μM GSK2830371, 72-hour cytarabine treatment): increased the sensitivity of Molm13 PPM1D-mutant cells to cytarabine; also recorded: reverses the chemotherapy resistance phenotype

Reference: patent publication US12201620B2, “Compositions and methods for treating chemotherapy resistant cancer” (The Brigham And Women's Hospital, Inc., priority 2016, dated 2025)
